Data as given in ChEMBL document CHEMBL1155870, “Design and synthesis of novel oxazole containing 1,3-dioxane-2-carboxylic acid derivatives as PPAR alpha/gamma dual agonists” (Bioorg Med Chem, 2008).
Activity calls are given as the source filed them. The rule behind the calls is not given here.

Key:
[1] = biological target: T1, Peroxisome proliferator-activated receptor alpha (Homo sapiens, UniProt Q07869); assay: Agonist activity at PPARalpha expressed in human HepG2 cells assessed as induction of receptor transactivation by reporter gene assay relative to control; type: functional, cell-based
T1 sequence (Q07869 whole entry): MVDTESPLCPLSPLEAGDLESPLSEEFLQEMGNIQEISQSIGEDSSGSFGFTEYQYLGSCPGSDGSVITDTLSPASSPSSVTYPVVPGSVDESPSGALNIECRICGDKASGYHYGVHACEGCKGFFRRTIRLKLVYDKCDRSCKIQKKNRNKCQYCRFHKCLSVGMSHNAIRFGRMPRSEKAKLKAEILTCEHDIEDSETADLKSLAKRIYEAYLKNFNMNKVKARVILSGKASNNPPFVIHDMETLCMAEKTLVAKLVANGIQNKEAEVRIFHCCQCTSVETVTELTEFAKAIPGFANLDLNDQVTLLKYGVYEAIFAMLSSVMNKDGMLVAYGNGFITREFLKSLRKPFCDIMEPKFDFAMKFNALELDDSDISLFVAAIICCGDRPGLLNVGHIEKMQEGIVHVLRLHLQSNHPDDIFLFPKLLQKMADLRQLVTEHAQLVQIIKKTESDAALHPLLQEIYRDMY

[2] = biological target: T2, Peroxisome proliferator-activated receptor alpha (Homo sapiens) (UniProt Q07869); assay: Agonist activity at PPARalpha expressed in human HepG2 cells at 10 uM assessed as induction of receptor transactivation by reporter gene assay relative to control; type: functional, cell-based
T2 sequence (whole entry): T1 sequence (Q07869 whole entry)

[3] = biological target: T3, Peroxisome proliferator-activated receptor gamma (Homo sapiens, UniProt P37231)
T3 sequence (P37231 whole entry): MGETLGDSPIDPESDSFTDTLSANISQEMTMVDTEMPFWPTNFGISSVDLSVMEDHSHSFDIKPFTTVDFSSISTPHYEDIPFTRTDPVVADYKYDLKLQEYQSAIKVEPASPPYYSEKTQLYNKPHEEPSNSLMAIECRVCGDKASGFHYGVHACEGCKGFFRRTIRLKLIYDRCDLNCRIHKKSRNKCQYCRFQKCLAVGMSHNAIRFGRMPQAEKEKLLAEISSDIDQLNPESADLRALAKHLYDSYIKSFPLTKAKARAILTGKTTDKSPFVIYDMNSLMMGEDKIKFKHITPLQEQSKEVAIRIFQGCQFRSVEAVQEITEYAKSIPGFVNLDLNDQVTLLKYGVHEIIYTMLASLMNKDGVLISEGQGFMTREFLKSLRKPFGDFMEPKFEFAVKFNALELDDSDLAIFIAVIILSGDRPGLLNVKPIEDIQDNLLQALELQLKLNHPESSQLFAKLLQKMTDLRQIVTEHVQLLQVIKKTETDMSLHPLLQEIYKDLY
Description: Agonist activity at PPARgamma expressed in human HepG2 cells assessed as induction of receptor transactivation by reporter gene assay relative to control

Rattus norvegicus [4] = assay: Hypolipidemic activity in Zucker diabetic fa/fa rat assessed as reduction in total cholesterol level at 3 mg/kg/day, po for 14 days; type: functional; design: scale not given: the % may be the effect or the level left
[5] = Half life in Wistar rat at 30 mg/kg, po; type: ADME, organism-based; design: dose 30 mg/kg, route oral; settings: in vivo
[6] = AUC (0 to infinity) in Wistar rat at 30 mg/kg, po; type: ADME, organism-based; design: time infinity, dose 30 mg/kg, route oral; settings: plasma
Rattus norvegicus [7] = assay: Hypolipidemic activity in Zucker diabetic fa/fa rat assessed as reduction in triglyceride level at 3 mg/kg/day, po for 14 days; type: functional; design: scale not given: the % may be the effect or the level left
Rattus norvegicus [8] = assay: Hypoglycemic activity in Zucker diabetic fa/fa rat assessed as improvement in glucose AUC at 3 mg/kg/day, po for 14 days; type: functional
Rattus norvegicus [9] = assay: Insulin sensitizing activity in Zucker diabetic fa/fa rat assessed as reduction in fasted insulin level at 3 mg/kg/day, po for 14 days; type: functional; design: scale not given: the % may be the effect or the level left
[10] = Tmax in Wistar rat at 30 mg/kg, po; type: ADME, organism-based; design: dose 30 mg/kg, route oral; settings: in vivo
Mus musculus [11] = assay: Hypoglycemic activity in db/db mouse assessed as reduction in plasma glucose level at 3 mg/kg/day, po for 6 days; type: functional; design: scale not given: the % may be the effect or the level left
Mus musculus [12] = assay: Hypolipidemic activity in db/db mouse assessed as reduction in triglyceride level at 3 mg/kg/day, po for 6 days; type: functional; design: scale not given: the % may be the effect or the level left
[13] = Cmax in Wistar rat at 30 mg/kg, po; type: ADME, organism-based; design: dose 30 mg/kg, route oral; settings: in vivo
Mus musculus [14] = assay: Hypoglycemic activity in db/db mouse assessed as reduction in plasma glucose level at 30 mg/kg/day, po for 6 days; type: functional, organism-based; design: route oral; scale not given: the % may be the effect or the level left

| EC50 [1] [nM] | fold change (FC) [2] | EC50 [3] [nM] | Compound | other results |
| --- | --- | --- | --- | --- |
| 0.272 | 5.3 | 4100 | Cc1oc(-c2ccccc2)nc1CCOc1ccc(C[C@H]2CO[C@@](C)(C(=O)O)OC2)cc1 |  |
|  | 2.7 |  | Cc1ccc(-c2nc(COc3ccc([C@H]4CO[C@@](C)(C(=O)O)OC4)cc3)c(C)o2)cc1 |  |
| 4.2 | 5.8 | 5010 | Cc1oc(C(C)(C)C)nc1CCOc1ccc(C[C@H]2CO[C@@](C)(C(=O)O)OC2)cc1 |  |
|  | 3 |  | Cc1oc(-c2ccccc2)nc1CCOc1ccc([C@H]2CO[C@@](C)(C(=O)O)OC2)cc1 |  |
|  | 4.4 |  | Cc1cccc(Nc2cc(Cl)nc(SCC(=O)O)n2)c1C |  |
|  | 3 |  | Cc1oc(-c2ccccc2)nc1COc1ccc([C@H]2CO[C@@](C)(C(=O)O)OC2)cc1 |  |
|  | 2.3 |  | Cc1oc(C(C)(C)C)nc1COc1ccc(C[C@H]2CO[C@@](C)(C(=O)O)OC2)cc1 |  |

More lines, now with the values behind:

| Compound | EC50 [1] [nM] | fold change (FC) [2] | EC50 [3] [nM] | other results |
| --- | --- | --- | --- | --- |
| Cc1ccc(-c2nc(CCCOc3ccc(C[C@H]4CO[C@@](C)(C(=O)O)OC4)cc3)c(C)o2)cc1 |  | 1.8 |  |  |
| Cc1oc(-c2ccccc2)nc1COc1ccc(C[C@H]2CO[C@@](C)(C(=O)O)OC2)cc1 | 1.09 | 6.5 | 96 |  |
| Cc1ccc(-c2nc(CCOc3ccc(C[C@H]4CO[C@@](C)(C(=O)O)OC4)cc3)c(C)o2)cc1 | 0.089 | 6.3 | 1380 |  |
| Cc1ccc(-c2nc(COc3ccc(C[C@H]4CO[C@@](C)(C(=O)O)OC4)cc3)c(C)o2)cc1 | 0.072 | 8.2 | 15 | Activity (Rattus norvegicus [4]): 30%; half-life [5]: 2.7 h; AUC(0-inf) [6]: 351 µg·h/mL; Activity (Rattus norvegicus [7]): 71%; Activity (Rattus norvegicus [8]): 51%; Activity (Rattus norvegicus [9]): 77%; Tmax [10]: 1.7 h; Activity (Mus musculus [11]): 57%; Activity (Mus musculus [12]): 50%; Cmax [13]: 54 µg/mL |
| Cc1ccc(-c2nc(CCOc3ccc([C@H]4CO[C@@](C)(C(=O)O)OC4)cc3)c(C)o2)cc1 |  |  |  | Activity [2]: inactive |
| Cc1ccc(-c2nc(COc3ccc(C[C@H]4CO[C@@](C)(C(=O)O)OC4)cc3)c(C)o2)s1 | 0.6 | 5.6 | 19.8 |  |
| CCO[C@@H](Cc1ccc(OCCc2ccc(OS(C)(=O)=O)cc2)cc1)C(=O)O [TESAGLITAZAR] |  |  |  | Activity (Rattus norvegicus [4]): 16%; Activity (Rattus norvegicus [7]): 67%; Activity (Rattus norvegicus [8]): 51%; Activity (Rattus norvegicus [9]): 91%; Activity (Mus musculus [11]): 54%; Activity (Mus musculus [12]): 60% |
| CN(CCOc1ccc(CC2SC(=O)NC2=O)cc1)c1ccccn1 (stereo not given) [ROSIGLITAZONE] |  |  |  | Activity (Mus musculus [14]): 54% |
| Cc1ccc(-c2nc(CCOc3ccc(C[C@H]4CO[C@@](C)(C(=O)O)OC4)cc3)c(C)o2)s1 | 0.03 | 6.8 | 239 |  |
